{"source": "patent US11420975B2", "about": "“Substituted imidazo[1,5-a]pyrazines as Bruton's tyrosine kinase inhibitors” (TRANSTHERA SCIENCES (NANJING), INC., priority 2018, dated 2022)", "key": {"TMD-8": {"system": "TMD-8", "experiment": "In vitro tumor cell proliferation inhibition, TMD-8 (CellTiter-Glo)", "type": "cell-based", "settings": "Homo sapiens, TMD8; TMD-8 cells, 72 h", "procedure": "(§1) (1) Method • The tumor cell line (TMD-8/OCY-LY10) was suspended in RPMI1640+FBS10% and cultured in an incubator (37° C., 5% CO2). Cells were passaged periodically, and cells at logarithmic growth phase were collected for plating. • Cell staining was performed with trypan blue and viable cells were counted. • Cell concentration was adjusted to 7000 cells/well with medium. • 90 μL of cell suspension was added to a 96-well plate and cell-free culture medium was added to the blank control wells. • Cells in the 96-well plate were incubated overnight in an incubator (37° C., 5% CO2, 100% relative humidity). • Preparation of 400× compound storage plates: test compounds and reference drug were each dissolved in DMSO and 3× diluted from the highest concentration (400 μM) to the lowest concentration (0.61 μM). • Preparation of 10× compound working solutions: 78 μL of cell culture medium was added to a V-bottom 96-well plate, and 2 μL of the compound was pipetted from the 400× compound storage plate into the 96-well plate. Vehicle control wells and blank control wells were added with 2 μL of DMSO. […] Inhibition rates of compounds at different concentrations were calculated in Excel, followed by plotting the inhibition curves and calculating IC50 values with GraphPad Prism."}, "[1]": {"experiment": "Pharmacokinetic study in male SD rats, intragastric", "type": "in vivo", "settings": "rat, 5 mg/kg", "procedure": "Male SD rats were fasted overnight before test. The test drugs were each suspended in a solution of 0.5% methylcellulose (MC) and 0.1% SDS in deionized water (w/w/v), and the suspension, each at a concentration of 1 mg/mL, was administered intragastrically at 5 mL/kg. At 15 min, 30 min, 1 h, 2 h, 4 h, 6 h, 8 h and 24 h after administration, approximately 0.4 mL of whole blood was collected from the orbital venous plexus of the animals and then placed in heparin anticoagulant tubes. Three animals were sampled at each time point and then put to death, and thus sample collection was completed on different individuals. The whole blood sample would be centrifuged within 15 min and centrifuged at 4° C./4200 rpm for 5 min. All plasma samples were stored in a refrigerator at −80±15° C. prior to analysis. An LC-MS/MS (Waters I Class UPLC-Xevo TQD tandem mass spectrometry) assay for the compounds was established prior to sample analysis. The collected plasma was quantitatively analyzed, plasma concentration-time data of animals were analyzed using WinNonlin (professional edition, version 5.2) software, a non-compartmental model was used for concentration analysis, and the pharmacokinetic parameters of the test compounds were calculated."}, "OCI-LY10 xenograft tumor": {"system": "OCI-LY10 xenograft tumor", "experiment": "OCI-LY10 xenograft tumor model", "type": "in vivo", "settings": "for TGI: bid", "procedure": "CB17/SCID female mice with serious immune deficiency were purchased from Beijing Vital River Laboratory Animal Technology Co., Ltd. and bred in SPF animal houses. Human OCI-LY10 cells (Shanghai Junrui-UFBN0102) were cultured in an RPMI 1640 culture medium containing 10% fetal bovine serum, 100 U/mL penicillin and 100 μg/mL streptomycin through monolayer culture in vitro in an incubator (37° C., 5% C02). Routine treatment was performed twice a week for passaging. At a cell saturation of 80%-90% and a required number, the cells were harvested and counted. 0.2 mL (1×10^7) of OCI-LY10 cells (together with matrigel at a volume ratio of 1:1) were subcutaneously inoculated into the right back of each mouse, and the tumor size could be measured about one week after inoculation. Tumor size was measured using a vernier caliper and tumor volume was calculated using the following formula: tumor volume=(length×width^2)/2."}, "OCI-LY10": {"system": "OCI-LY10", "experiment": "In vitro tumor cell proliferation inhibition, OCI-LY10 (CellTiter-Glo)", "type": "cell-based", "settings": "Homo sapiens; OCI-LY10 cells, 72 h", "procedure": "as §1"}}, "note": "Like-named read-outs stand apart in the source and are kept apart here."}
{"smiles": "Nc1nccn2c(C34CCC(NC(=O)CN5CCOCC5)(CC3)C4)nc(-c3ccc(C(=O)Nc4cc(C(F)(F)F)ccn4)cc3)c12", "note": "[Compound A-10-10, 4-(8-amino-3-(4-(2-morpholinoacetamido)bicyclo[2.2.1]heptan-1-yl)imidazo[1,5-a]pyrazin-1-yl)-N-(4-(trifluoromethyl)pyridin-2-yl)benzamide]", "values": [{"measurement": "IC50", "setting": "TMD-8", "value": 2.9, "unit": "nM"}, {"measurement": "AUC(0-inf)", "setting": "[1]; male, SD, plasma, po", "value": 73300, "unit": "ng·h/mL"}, {"measurement": "Tmax", "setting": "[1]; male, SD, plasma, po", "value": 2, "unit": "h"}, {"measurement": "half-life", "setting": "[1]; male, SD, plasma, po", "value": 3.74, "unit": "h"}, {"measurement": "Cmax", "setting": "[1]; male, SD, plasma, po, p.o., read-out: Cmax", "value": 8320, "unit": "ng/mL"}, {"measurement": "AUC0-INF", "setting": "[1]; p.o.", "value": 73318, "unit": "ng·h/mL"}, {"measurement": "Cmax", "setting": "[1]; p.o.", "value": 8323, "unit": "ng/mL"}, {"measurement": "xenograft tumors disappearance", "setting": "OCI-LY10 xenograft tumor; 25 mg/kg group, after 28 days of administration", "value": "disappeared completely"}, {"measurement": "xenograft tumors disappearance", "setting": "OCI-LY10 xenograft tumor; 50 mg/kg group, after 21 days of administration", "value": "completely disappeared"}, {"measurement": "tolerance of tumor-bearing mice", "setting": "OCI-LY10 xenograft tumor; all dosages", "value": "good tolerance"}, {"measurement": "effect on body weight of tumor-bearing mice", "setting": "OCI-LY10 xenograft tumor; all treatment groups", "value": "no significant weight loss"}, {"measurement": "TGI", "setting": "OCI-LY10 xenograft tumor; intragastric 25 mg/kg", "value": 110, "unit": "%"}, {"measurement": "TGI", "setting": "OCI-LY10 xenograft tumor; intragastric 50 mg/kg", "value": 110, "unit": "%"}, {"measurement": "IC50", "setting": "OCI-LY10", "value": 10.3, "unit": "nM"}]}
